Assay results published in US9365604B2, “Oligomer-nucleoside phosphate conjugates” (NEKTAR THERAPEUTICS, priority 2007, dated 2016).

Columns and labels:
MDCK cells = assay: Bi-directional permeability in MDCK cells
Description: Bi-Directional Permeability of PEG-Floxuridine Conjugates in Caco-2 and MDCK Cells

[1] = on a mM basis
Description: Cells were inoculated into 24-well microtiter plates in 100 μL at 5×10^3 cells/well, in duplicate. After 24 h, test articles were added to the cells for 24 or 48 h, after which time the supernatant from each of the wells was collected and stored below −15° C. until LC/MS analysis.

CAKI-1 = assay: In vitro cytotoxicity assay (CellTiter-Glo); assay type: cell-based; details: for IC50: 72 h exposure, CellTiter-Glo
Description: The objective of these studies were to determine the IC50 values for PEG-floxuridine conjugates against floxuridine-resistant cell lines based on data from previous Xenograft studies. The cells were exposed for 72 h, and cell viability assessed by using the CellTiter-Glo assay.

PANC-1 = assay: In vitro cytotoxicity assay (CellTiter-Glo); assay type: cell-based; details: 72 h exposure
Description: The objective of these studies was to determine the IC50 values for PEG-gemcitabine conjugates against gemcitabine-resistant cell lines based on data from previous Xenograft studies. The cells were exposed for 72 h, and cell viability assessed by using the CellTiter-Glo assay.
The PEG-gemcitabine derivatives and gemcitabine inhibited the growth of most of the cell lines with IC50 values from the nM to low μM range, except for PANC-1 cells. Like the previous study, some of the IC50 values should be interpreted carefully because the concentration range tested was not centered around the IC50. […] The PANC-1 pancreatic cell line, in contrast to BxPC-3, Capan-1, or MIA-PaCa-2, has been shown previously to be resistant in vitro to gemcitabine, and 4′-thio-FAC, a deoxycytidine sulfur- and fluoro-substituted analog (Zajchowski et al., (2005). Int J Cancer. 114(6), 1002-9).

| Compound | Papp A -> B (MDCK cells) | Papp B -> A (MDCK cells) | Significant efflux (MDCK cells) | percent recovery A -> B (MDCK cells) | percent recovery B -> A (MDCK cells) | remains after 24 and 48 h [1] | Ratio vs gem (IC50) CAKI-1 (CAKI-1) | IC50 (CAKI-1) | IC50 (PANC-1) |
| --- | --- | --- | --- | --- | --- | --- | --- | --- | --- |
| COCCOCCOCCOP(=O)(O)OC[C@H]1O[C@@H](n2ccc(N)nc2=O)C(F)(F)[C@@H]1O.Cl [Gemcitabine Mono (mPEG3), 5′-gemcitabine methoxy tri(ethylene glycol) phosphate hydrochloride] | <0.06 10^−6 cm/s | <0.08 10^−6 cm/s | No | 91% | 96% | approximately 80% | 3 | 21 nM | > 1e+06 nM |
| COCCOCCOCCOCCOCCOCCOCCOP(=O)(O)OC[C@H]1O[C@@H](n2ccc(N)nc2=O)C(F)(F)[C@@H]1O.Cl [Gemcitabine Mono (mPEG7), 5′-gemcitabine methoxy hepta(ethylene glycol) phosphate hydrochloride] | <0.06 10^−6 cm/s | <0.08 10^−6 cm/s | No | 94% | 96% | approximately 80% | 6 | 50 nM | > 1e+06 nM |
